Test results as given in the supplement of paper PMC10307832.

Legend:
Experiment in all cases: relative viability (nuclei count vs DMSO), 5 days (fraction); higher = more cells survive
Midostaurin + OSI-027 = compound: CO[C@@H]1[C@H](N(C)C(=O)c2ccccc2)C[C@H]2O[C@]1(C)n1c3ccccc3c3c4c(c5c6ccccc6n2c5c31)C(=O)NC4 [Midostaurin] + COc1cccc2cc(-c3nc([C@H]4CC[C@H](C(=O)O)CC4)n4ncnc(N)c34)[nH]c12 [OSI-027] (partner 0.5 µM)
Summary of the method: (§1)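 Five library-drug doses in √10 steps were combined with a fixed anchor-drug dose, or a single drug was given alone, by pin tool to lung cancer cell lines in 1536-well plates the day after seeding. Nuclei were stained and counted after 5 days. Relative viability is the nuclei count in treated wells over that in vehicle wells, taken as the median of duplicate plates.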

[1] = compound: COc1cc(-c2nn([C@H]3CC[C@H](N4CCN(C(C)=O)CC4)CC3)c3ncnc(N)c23)ccc1NC(=O)c1cc2ccccc2n1C + CC(=O)c1c(C)c2cnc(Nc3ccc(N4CCNCC4)cn3)nc2n(C2CCCC2)c1=O [Palbociclib] (partner 0.5 µM)
Summary of the method: as §1

[2] = compound: COc1cc(-c2nn([C@H]3CC[C@H](N4CCN(C(C)=O)CC4)CC3)c3ncnc(N)c23)ccc1NC(=O)c1cc2ccccc2n1C + CC(C)C[C@H](NC(=O)[C@H](Cc1ccccc1)NC(=O)c1cnccn1)B(O)O [Bortezomib] (partner 0.002 µM)
Summary of the method: as §1

[3] = compound: COc1cc(-c2nn([C@H]3CC[C@H](N4CCN(C(C)=O)CC4)CC3)c3ncnc(N)c23)ccc1NC(=O)c1cc2ccccc2n1C + CS(=O)(=O)CCNCc1ccc(-c2ccc3ncnc(Nc4ccc(OCc5cccc(F)c5)c(Cl)c4)c3c2)o1 [Lapatinib] (partner 2 µM)
Summary of the method: as §1

[4] = compound: COc1cc(-c2nn([C@H]3CC[C@H](N4CCN(C(C)=O)CC4)CC3)c3ncnc(N)c23)ccc1NC(=O)c1cc2ccccc2n1C + NC(=O)Nc1cc(-c2cccc(F)c2)sc1C(=O)N[C@H]1CCCNC1 [AZD7762] (partner 0.2 µM)
Summary of the method: as §1

Row | Cell Line | relative viability (Midostaurin + OSI-027; first compound 0.01 µM) | relative viability (Midostaurin + OSI-027; first compound 0.03162 µM) | relative viability (Midostaurin + OSI-027; first compound 0.1 µM) | relative viability (Midostaurin + OSI-027; first compound 0.3162 µM) | relative viability ([1]; first compound 0.0128 µM) | relative viability ([1]; first compound 0.04048 µM) | relative viability ([1]; first compound 0.128 µM) | relative viability ([1]; first compound 1.28 µM) | relative viability ([2]; first compound 0.0128 µM) | relative viability ([2]; first compound 0.04048 µM) | relative viability ([2]; first compound 0.128 µM) | relative viability ([2]; first compound 1.28 µM) | relative viability ([3]; first compound 0.0128 µM) | relative viability ([3]; first compound 0.04048 µM) | relative viability ([3]; first compound 0.128 µM) | relative viability ([3]; first compound 1.28 µM) | relative viability ([4]; first compound 0.0128 µM) | relative viability ([4]; first compound 0.04048 µM) | relative viability ([4]; first compound 0.128 µM) | relative viability ([4]; first compound 1.28 µM)
1 | NCI-H1792 | 0.664 | 0.8 | 0.659 | 0.617 | 0.663 | 0.626 | 0.657 | 0.636 | 1.03 | 0.883 | 0.948 | 0.67 | 0.83 | 0.773 | 0.883 | 0.755 | 0.646 | 0.679 | 0.632 | 0.517
2 | NCI-H650 | 0.439 | 0.455 | 0.507 | 0.456 | 0.35 | 0.385 | 0.3 | 0.339 | 1.17 | 1.23 | 0.848 | 0.867 | 1.14 | 1.36 | 0.843 | 0.837 | 1.13 | 1.02 | 0.975 | 0.935
3 | 201T | 0.725 | 0.787 | 0.751 | 0.818 | 0.353 | 0.402 | 0.337 | 0.294 | 1.14 | 1.16 | 1.06 | 1.03 | 1.11 | 1.04 | 1 | 0.915 | 0.707 | 0.51 | 0.584 | 0.465
4 | HCC-44 | – | 0.501 | 0.529 | 0.401 | 1.04 | 0.975 | 0.972 | 1.29 | 0.993 | 0.886 | 0.897 | 1.27 | 1.08 | 1.21 | 0.937 | 1.23 | 1.13 | 1.17 | 0.981 | 1.19
5 | H3255 | 0.592 | 0.512 | 0.622 | 0.593 | 0.324 | 0.316 | 0.349 | 0.318 | 0.92 | 0.765 | 0.721 | 0.779 | 0.294 | 0.27 | 0.238 | 0.176 | 0.879 | 0.87 | 0.894 | 0.633
6 | NCI-H647 | 0.637 | 0.652 | 0.779 | 0.753 | 0.391 | 0.382 | 0.4 | 0.216 | 1.13 | 1.34 | 0.877 | 0.588 | 1.24 | 0.974 | 0.981 | 0.632 | 0.503 | 0.602 | 0.403 | 0.367
7 | NCI-H23 | 0.562 | 0.592 | 0.524 | 0.513 | 0.47 | 0.519 | 0.508 | 0.4 | 1.06 | 0.682 | 1.18 | 0.883 | 1.28 | 1.03 | 1.07 | 1.09 | 0.268 | 0.199 | 0.261 | 0.199
8 | NCI-H460 | 0.513 | 0.62 | 0.722 | 0.665 | 0.17 | 0.133 | 0.148 | 0.153 | 1.14 | 1.26 | 1.09 | 0.99 | 1.05 | 0.994 | 0.964 | 0.741 | 0.618 | 0.73 | 0.603 | 0.579
9 | EKVX | 0.786 | 0.616 | 0.674 | 0.657 | 0.383 | 0.47 | 0.357 | 0.271 | 1.07 | 1.1 | 0.917 | 0.401 | 0.217 | 0.203 | 0.189 | 0.154 | 0.79 | 0.691 | 0.685 | 0.385
10 | EPLC-272H | 0.301 | – | 0.289 | 0.305 | 0.352 | 0.327 | 0.337 | 0.301 | 0.993 | 0.933 | 0.952 | 0.902 | 0.815 | 0.891 | 0.997 | 0.86 | 0.253 | 0.207 | 0.215 | 0.142
11 | NCI-H2126 | 0.808 | 0.545 | 0.685 | 0.666 | 0.35 | 0.372 | 0.344 | 0.329 | 1.17 | 1.17 | 1.06 | 1.03 | 0.801 | 0.859 | 0.718 | 0.68 | 1.06 | 0.988 | 0.976 | 0.817
12 | LXF-289 | 0.819 | 0.864 | 0.842 | 0.743 | 0.673 | 0.648 | 0.549 | 0.706 | 1.07 | 0.963 | 1 | 1.18 | 1.01 | 0.86 | 0.876 | 1.02 | 1.29 | 0.964 | 1.04 | 1.14
13 | NCI-H2405 | 0.65 | 0.6 | 0.525 | 0.633 | 0.551 | 0.396 | 0.486 | 0.269 | 0.939 | – | 0.936 | 0.668 | 1.13 | 0.554 | 0.955 | 0.446 | 0.707 | 0.615 | 0.573 | 0.349
14 | NCI-H1755 | 0.74 | 0.677 | 0.678 | 0.483 | 0.54 | 0.467 | 0.458 | 0.402 | 1.06 | 0.993 | 1.03 | 0.86 | 1.17 | 0.967 | 0.974 | 1.05 | 0.501 | 0.344 | 0.371 | 0.417
15 | HCC-78 | 0.432 | 0.332 | 0.381 | 0.299 | 0.479 | 0.433 | 0.465 | 0.381 | 0.547 | 0.724 | 0.566 | 0.43 | 0.953 | 0.85 | 0.673 | 0.585 | 0.52 | 0.851 | 0.52 | 0.331
16 | LOU-NH91 | 0.74 | 0.67 | 0.747 | 0.802 | 0.536 | 0.533 | 0.529 | 0.454 | 0.498 | 0.522 | 0.515 | 0.518 | 0.756 | 0.689 | 0.747 | 0.679 | 0.813 | 0.796 | 0.732 | 0.658
17 | NCI-H3122 | 0.932 | 0.492 | 1.06 | 1.41 | 0.197 | – | 0.169 | 0.189 | 1.14 | – | 1.01 | 0.788 | 1.04 | – | 0.99 | 0.841 | 1.06 | – | 0.958 | 0.845
18 | HCC-827 | 0.719 | 0.708 | 0.821 | 0.8 | 0.492 | 0.455 | 0.484 | 0.218 | 0.831 | 1.17 | 0.99 | 0.676 | 0.192 | 0.172 | 0.182 | 0.204 | 0.211 | 0.212 | 0.199 | 0.138
19 | NCI-H1975 | 0.784 | 0.838 | 0.752 | 0.607 | 0.534 | 0.541 | 0.513 | 0.23 | 0.401 | 0.399 | 0.332 | 0.199 | 0.891 | 0.928 | 0.837 | 0.447 | 0.761 | 0.731 | 0.632 | 0.429
20 | NCI-H1651 | 0.707 | 0.78 | 0.713 | 0.864 | 0.522 | 0.539 | 0.513 | 0.49 | 0.85 | 0.949 | 0.939 | 0.84 | 0.961 | 1.03 | 0.621 | 0.74 | 0.466 | 0.457 | 0.49 | 0.397
21 | LCLC-97TM1 | 0.439 | 0.404 | 0.434 | 0.557 | 0.22 | 0.194 | 0.241 | 0.191 | 0.35 | 0.327 | 0.567 | 0.584 | 0.922 | 0.553 | 0.9 | 1.08 | 0.377 | 0.165 | 0.283 | 0.194
22 | NCI-H727 | 0.673 | 0.492 | 0.538 | 0.479 | 0.615 | – | 0.553 | 0.583 | 0.834 | – | 0.808 | 1.06 | 0.804 | – | 0.754 | 0.718 | 0.562 | – | 0.716 | 0.575
23 | NCI-H1355 | 0.431 | 0.425 | 0.39 | 0.492 | 0.448 | 0.402 | 0.416 | 0.415 | 1.4 | 1.23 | 1.22 | 1.15 | 1.11 | 0.928 | 0.952 | 0.897 | 0.75 | 0.788 | 0.654 | 0.619
24 | HOP-62 | 0.779 | 0.754 | 0.947 | 0.686 | 0.503 | 0.468 | 0.411 | 0.432 | 0.845 | 0.883 | 0.992 | 0.621 | 1.09 | 0.891 | 0.865 | 1.03 | 0.74 | 0.555 | 0.661 | 0.566
25 | NCI-H2085 | 0.752 | 0.655 | 0.837 | 0.461 | 0.491 | 0.48 | 0.455 | 0.441 | 1.05 | 1.06 | 1.12 | 1.14 | 0.77 | 0.822 | 0.805 | 0.564 | 1.08 | 0.929 | 0.854 | 0.427
